This test concerns HCV genotype-1a variant with glutamine 30 changed to glutamate in the NS5A protein. It counts as cell-based. To be noted: test compound titrated with BMS-790052 fixed at 200 nM; genotype 1a Q30E replicon. The essentials:
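Synergy was assessed by combining several fixed amounts of an NS5A-targeting compound with a titration of the second compound of interest.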
On the technique in general: Replicon systems follow genome replication, usually without infectious particles.

The values below come from US20160158200A1, “Combinations of Hepatitis C Virus Inhibitors” (priority 2013, published 2016).

Regarding `CC(C)OC(=O)N[C@@H](C(=O)N[C@H](c1ncc(-c2ccc(-c3ccc(-c4cnc([C@@H](NC(=O)[C@H](NC(=O)OC(C)C)C(C)C)C(C)C)[nH]4)cc3)cc2)[nH]1)C(C)C)C(C)C` [Compound S-250], the “Fold-Synergistic 1a (Q30E)” value is recorded as greater than 100 fold.
As to `C[C@@H]1CCN(C(=O)C(=O)N(C2CC2)C2CC2)C1c1nc(-c2ccc(-c3ccc(-c4c[nH]c(C5[C@H](C)CCN5C(=O)C(=O)N(C5CC5)C5CC5)n4)cc3)cc2)c[nH]1` (stereo partly shown) [Compound W-241], the “Fold-Synergistic 1a (Q30E)” value is greater than 10 fold.
With `CC(C)CC(=O)N1CCC[C@H]1c1ncc(-c2ccc(-c3ccc(C4=CNC([C@@H]5CCCN5C(=O)CC(C)C)N4)cc3)cc2)[nH]1` (stereo partly shown) [Compound S-112], the “Fold-Synergistic 1a (Q30E)” value was less than 10 fold.
Take `CC(C)CCC(=O)N[C@H](c1ncc(-c2ccc(-c3ccc(-c4cnc([C@@H](NC(=O)CCC(C)C)C(C)C)[nH]4)cc3)cc2)[nH]1)C(C)C` [Compound S-32]: the “Fold-Synergistic 1a (Q30E)” value is on record as greater than 100 fold.
With `CC(C)[C@H](NC(=O)c1ccc(C(F)(F)F)nc1)c1ncc(-c2ccc(-c3ccc(-c4cnc([C@@H](NC(=O)C(C)(C)C)C(C)C)[nH]4)cc3)cc2)[nH]1` [Compound Y-53] the figure was greater than 100 fold.
To `CC(C)[C@H](NC(=O)C1(c2ccc(F)cc2)CCC1)c1ncc(-c2ccc(-c3ccc(-c4cnc([C@@H](NC(=O)C5(c6ccc(F)cc6)CCC5)C(C)C)[nH]4)cc3)cc2)[nH]1` [Compound P-82] belongs greater than 100 fold.
As to `COC(=O)N[C@@H](C(=O)N[C@H](c1ncc(-c2ccc(-c3ccc(-c4cnc([C@@H](NC(=O)[C@H](NC(=O)OC)C5CC5)C(C)C)[nH]4)cc3)cc2)[nH]1)C(C)C)C1CC1` [Compound P-102], the “Fold-Synergistic 1a (Q30E)” value is recorded as greater than 10 fold.
In the case of `CC(O)(CF)C(=O)N[C@H](c1nc(-c2ccc(-c3ccc(-c4c[nH]c([C@@H](NC(=O)C(C)(O)CF)C(C)(C)C)n4)cc3)cc2)c[nH]1)C(C)(C)C` (single isomer, unassigned) [Compound N-139C], the “Fold-Synergistic 1a (Q30E)” value was greater than 100 fold.
Consider `COC(=O)N(C)C1(C(=O)N[C@H](c2ncc(C#Cc3ccc4cc(-c5cnc([C@@H](NC(=O)C6(N(C)C(=O)OC)CC6)C(C)(C)C)[nH]5)ccc4c3)[nH]2)C(C)(C)C)CC1` [Compound B5], for which the “Fold-Synergistic 1a (Q30E)” value is greater than 100 fold.
To `CC(C)(C)OC(=O)NC1(C(=O)NC(c2nc(-c3ccc(-c4ccc(-c5c[nH]c(C(NC(=O)C6(NC(=O)OC(C)(C)C)CCC(F)(F)CC6)C(C)(C)C)n5)cc4)cc3)c[nH]2)C(C)(C)C)CCC(F)(F)CC1` [Compound L-49] belongs greater than 100 fold; to `Cc1cc(-c2ccc(-c3c[nH]c([C@@H](NC(=O)C(C)(C)C)C(C)C)n3)cc2)ccc1-c1c[nH]c([C@@H](NC(=O)C(C)(C)C)C(C)C)n1` [Compound N-77], greater than 100 fold; to `CC1(C)CC(C(=O)NC(c2nc(-c3ccc(-c4ccc(-c5c[nH]c(C(NC(=O)C6CC(C)(C)C6)C(C)(C)C)n5)cc4)cc3)c[nH]2)C(C)(C)C)C1` [Compound L-53], greater than 100 fold.
With `CC(C)(NC(=O)OCCF)C(=O)N[C@H](c1nc(-c2ccc(-c3ccc(-c4c[nH]c([C@@H](NC(=O)C(C)(C)NC(=O)OCCF)C(C)(C)C)n4)cc3)cc2)c[nH]1)C(C)(C)C` [Compound Q-4] the figure was greater than 100 fold; with `COc1ccccc1C(O)CC(=O)N[C@H](c1nc(-c2ccc(-c3ccc(-c4c[nH]c([C@@H](NC(=O)C5(C(O)c6ccccc6OC)CC5)C(C)(C)C)n4)cc3)cc2)c[nH]1)C(C)(C)C` (single isomer, unassigned) [Compound N-135C], greater than 100 fold; with `COc1cc2ccccc2c(C(=O)N[C@H](c2ncc(-c3ccc(-c4ccc(-c5cnc([C@@H](NC(=O)c6nc(OC)cc7ccccc67)C(C)C)[nH]5)cc4)cc3)[nH]2)C(C)C)n1` [Compound Y-19], greater than 100 fold.
With `CC(C)(C)[C@H](NC(=O)c1c(F)cccc1Cl)c1nc(-c2ccc(-c3ccc(-c4c[nH]c([C@@H](NC(=O)c5c(F)cccc5Cl)C(C)(C)C)n4)cc3)cc2)c[nH]1` [Compound N-66], the “Fold-Synergistic 1a (Q30E)” value is recorded as greater than 100 fold.
As for `CC(C)[C@H](NC(=O)N1CCN(C)CC1)c1ncc(-c2ccc(-c3ccc(-c4cnc([C@@H](NC(=O)N5CCN(C)CC5)C(C)C)[nH]4)cc3)cc2)[nH]1` [Compound S-235], the “Fold-Synergistic 1a (Q30E)” value is reported as greater than 10 fold.
To `CC(C)(F)C(NC(=O)C1CCC(F)(F)CC1)c1nc(-c2ccc(-c3ccc(-c4c[nH]c(C(NC(=O)C5CCC(F)(F)CC5)C(C)(C)F)n4)cc3)cc2)c[nH]1` (single isomer, unassigned) [Compound N-106C] belongs greater than 100 fold; to `CC(C)(F)C(NC(=O)C1CCC(F)(F)CC1)c1nc(-c2ccc(-c3ccc(-c4c[nH]c(C(NC(=O)C5CCC(F)(F)CC5)C(C)(C)F)n4)cc3)cc2)c[nH]1` (single isomer, unassigned) [Compound N-106A], greater than 100 fold; to `CC(C)[C@H](NC(=O)c1cccc(Cl)c1)c1ncc(-c2ccc(-c3ccc(-c4cnc([C@@H](NC(=O)c5cccc(Cl)c5)C(C)C)[nH]4)cc3)cc2)[nH]1` [Compound S-74], greater than 100 fold.
For `CC(C)[C@H](NC(=O)C1(C)CC1)c1ncc(-c2ccc(-c3ccc(-c4cnc([C@@H](NC(=O)C5(C)CC5)C(C)C)[nH]4)cc3)cc2)[nH]1` [Compound S-1], the “Fold-Synergistic 1a (Q30E)” value is recorded as greater than 100 fold.
Take `CC(C)(C)[C@H](NS(=O)(=O)C1CCCCC1)c1nc(-c2ccc(-c3ccc(-c4c[nH]c([C@@H](NS(=O)(=O)C5CCCCC5)C(C)(C)C)n4)cc3)cc2)c[nH]1` [Compound L-118]: the “Fold-Synergistic 1a (Q30E)” value is on record as greater than 100 fold.
For the compound `CC1(C)CCN(C(=O)C2CCC(F)(F)CC2)C1c1nc(-c2ccc(-c3ccc(-c4c[nH]c(C5N(C(=O)C6CCC(F)(F)CC6)CCC5(C)C)n4)cc3)cc2)c[nH]1` (stereo not shown) [Compound W-217], the “Fold-Synergistic 1a (Q30E)” value is recorded as greater than 10 fold.
With `COC(C)(C)C(=O)N[C@H](c1nc(-c2ccc(-c3ccc(-c4c[nH]c([C@@H](NC(=O)C(C)(C)OC)C(C)(C)C)n4)c(C)c3)cc2)c[nH]1)C(C)(C)C.O=C(O)C(F)(F)F` [Compound N-85] the figure was greater than 100 fold.
For `CC(C)(C)[C@H](NC(=O)C(C)(C)C1(O)CCC(F)(F)CC1)c1ncc(C#Cc2ccc3cc(-c4cnc([C@@H](NC(=O)C(C)(C)C5(O)CCC(F)(F)CC5)C(C)(C)C)[nH]4)ccc3c2)[nH]1` [Compound B5A], the “Fold-Synergistic 1a (Q30E)” value is recorded as greater than 100 fold.
With `CC(C)[C@H](NC(=O)[C@@]1(C)CCC(F)(F)CO1)c1nc(-c2ccc3c(c2)CCc2cc(-c4c[nH]c([C@@H](NC(=O)[C@@]5(C)CCC(F)(F)CO5)C(C)C)n4)ccc2-3)c[nH]1` [Compound N-131] the figure was greater than 100 fold; with `CC(C)(C)[C@H](NC(=O)C1CCC(F)(F)CC1)c1nc2ccc(C#Cc3ccc4nc([C@@H](NC(=O)C5CCC(F)(F)CC5)C(C)(C)C)[nH]c4c3)cc2[nH]1` [Compound B38], greater than 100 fold; with `CC1(C)CCCC(C)(C(=O)N[C@H](c2nc(-c3ccc(-c4ccc(-c5c[nH]c([C@@H](NC(=O)C6(C)CCCC(C)(C)O6)C(C)(C)C)n5)cc4)cc3)c[nH]2)C(C)(C)C)O1` (single isomer, unassigned) [Compound W-168], greater than 10 fold.
